From patent publication US9145405B2, “Oxadiazole compound and preparation method thereof, pharmaceutical composition and use thereof” (SHANGHAI JIAO TONG UNIVERSITY, priority 2011, dated 2015)
In brackets after ≈: the same amount, converted by molar mass. Read-outs that look alike come from different tables or passages of the source.

Legend:
[1] = tested on: Cox_B3 virus; experiment: Anti-Cox_B3 test: inhibition of cytopathic effect (CPE) in infected Vero cells, Reed-Muench; format: cell-based; conditions: for IC50: read-out: IC50 (half-inhibitory concentration for viruses)
Description: The present examples verifies experimental results of anti-Cox_B3 of the compounds 1-137of the present invention, Pleconaril, 3-[3,5-dimethyl-4-[5-(3-methy-1,2-oxazolyl)propoxy]phenyl]-5-(trifluonomethyl) -1,2,4-oxadiazole is used as positive control.

[2] = tested on: Vero cells; experiment: Toxicity (half toxic concentration) in the anti-Cox_B3 test on Vero cells; format: cell-based
[3] = Cox_B3 virus in Vero cells, CPE, Reed-Muench method

SMILES | IC50 [1, 3] [mg/L] | IC50 (half-inhibitory concentration for viruses) [1, 3] [mg/L] | TC50 (half of the toxic concentration) [2] [mg/L] | TC50 (half of the toxic concentration) ([2]; Vero cells, Cox_B3) [mg/L] | IC50 ([1]; Vero) [mg/L]
CCON=Cc1ccc(OCCOc2c(C)cc(-c3noc(C(F)(F)F)n3)cc2C)cn1 [Compound 44, 6-[2,6-dimethyl-4-[(5-(trifluoromethyl)-1,2,4-oxadiazole-3-yl)phenoxyl]ethoxyl]pyridine-2-oxy-ethylketoxime] | – | 0.078 | 34.35 | – | –
COC(=O)c1cnc(OCCOc2c(C)cc(-c3noc(C(F)(F)F)n3)cc2C)c(F)c1 [Compound 49, 6-[2,6-dimethyl-4-[(5-(trifluoromethyl)-1,2,4-oxadiazole-3-yl)phenoxyl]ethoxyl]-5-fluoro-3-pyridinecarboxylate] | – | 0.096 | 35.36 | – | –
Cc1cc(-c2noc(C(F)(F)F)n2)cc(C)c1OCCOC(C)(C)C [Compound 90, 3-[3,5-dimethyl-4-[(2-tert-butoxy)ethoxyl]phenyl]-5-(trifluoromethyl)-1,2,4-oxadiazole] | – | 0.15 | 38.28 | – | –
COC(=O)c1cnc(OCCOc2c(C)cc(-c3noc(C)n3)cc2C)c(F)c1 [Compound 103] | – | 0.07 | 39.55 | – | –
Cc1cc(-c2noc(C(F)(F)F)n2)cc(C)c1OCCOc1ccc(-c2noc(C(F)(F)F)n2)cc1 [Compound 112, 3-[3,5-dimethyl-4-[2-[4-[5-(trifluoromethyl)-1,2,4-oxadiazole-3-yl]phenoxyl]ethoxyl]phenyl]-5-(trifluoromethyl)-1,2,4-oxadiazole] | 0.032 (≈ 0.0622 µM) | – | – | 34.98 | –
Cc1cc(-c2noc(C(F)(F)F)n2)cc(C)c1OCCOc1ccc(-c2noc(C(F)(F)F)n2)cn1 [Compound 114, 2-[2-[2,6-dimethyl-4-[5-(trifluoromethyl)-1,2,4-oxadiazole-3-yl]phenoxyl]ethoxyl]-5-[5-(trifluoromethyl)-1,2,4-oxadiazole-3-yl]-pyridine] | 0.038 (≈ 0.0737 µM) | – | – | 36.32 | –
Cc1nc(-c2cnc(OCCOc3c(C)cc(-c4noc(C(F)(F)F)n4)cc3C)c(F)c2)no1 [Compound 115, 2-[2-[2,6-dimethyl-4-[5-(trifluoromethyl)-1,2,4-oxadiazole-3-yl]phenoxyl]ethoxyl]-3-fluoro-5-(5-methyl-1,2,4-oxadiazole-3-yl)-pyridine] | 0.037 (≈ 0.0772 µM) | – | – | 37.55 | –
Cc1cc(-c2noc(C(F)(F)F)n2)cc(C)c1OCCOc1ncc(-c2noc(C(F)(F)F)n2)cc1F [Compound 116, 2-[2-[2,6-dimethyl-4-[5-(trifluoromethyl)-1,2,4-oxadiazole-3-yl]phenoxyl]ethoxyl]-3-fluoro-5-[5-(trifluoromethyl)-1,2,4-oxadiazole-3-yl]-pyridine] | 0.034 (≈ 0.0637 µM) | – | – | 39.21 | –
Cc1cc(-c2noc(C(F)(F)F)n2)cc(C)c1OCCCOc1ccc(-c2noc(C(F)(F)F)n2)cc1 [Compound 118, 3-[3,5-dimethyl-4-[3-[4-[5-(trifluoromethyl)-1,2,4-oxadiazole-3-yl]phenoxyl]propoxy]phenyl]-5-(trifluoromethyl)-1,2,4-oxadiazole] | 0.048 (≈ 0.0908 µM) | – | – | 37.21 | –
Cc1cc(-c2noc(C(F)(F)F)n2)cc(C)c1OCCCOc1ncc(-c2noc(C(F)(F)F)n2)cc1F [Compound 122, 2-[3-[2,6-dimethyl-4-[5-(trifluoromethyl)-1,2,4-oxadiazole-3-yl]phenoxyl]propoxy]-3-fluoro-5-[5-(trifluoromethyl)-1,2,4-oxadiazole-3-yl]-pyridine] | 0.041 (≈ 0.0749 µM) | – | – | 34.87 | –
Cc1cc(-c2noc(C(F)(F)F)n2)cc(C)c1OCCOc1ccc(-c2noc(C(F)(F)F)n2)cc1F [Compound 123] | – | 0.043 | 35.88 | – | –
Cc1cc(-c2noc(C(F)(F)F)n2)cc(C)c1OCCCOc1ccc(-c2noc(C(F)(F)F)n2)cc1F [Compound 124] | – | 0.037 | 32.58 | – | –
Cc1cc(-c2noc(C(F)(F)F)n2)cc(C)c1OCCCOC1CCC(C)C(C)C1 (stereo not shown) [Compound 129, 3-[4-[3-[3,4-dimethylcyclohexyloxy]propoxy]-3,5-dimethylphenyl]-5-(trifluoromethyl)-1,2,4-oxadiazole] | – | – | – | 35.46 | 0.025 (≈ 0.0586 µM)
Cc1cc(-c2noc(C(F)(F)F)n2)cc(C)c1OCCCOc1cnc(C#N)cn1 [Compound 131, 2-cyano-5-[3-[2,6-dimethyl-4-[5-(trifluoromethyl)-1,2,4-oxadiazole-3-yl]phenoxyl]propoxy]pyrazine] | – | – | – | 36.87 | 0.035 (≈ 0.0835 µM)
Cc1cc(-c2noc(C(F)(F)F)n2)cc(C)c1OCCCOc1ccc(-c2noc(C(F)(F)F)n2)nn1 [Compound 137, 3-[5-(trifluoromethyl)-1,2,4-oxadiazole-3-yl]-6-[3-[2,6-dimethyl-4-[5-(trifluoromethyl)-1,2,4-oxadiazole-3-yl]phenoxyl]propoxy]pyridazine] | 0.039 (≈ 0.0735 µM) | – | – | 41.65 | –
Cc1cc(CCCOc2c(C)cc(-c3noc(C(F)(F)F)n3)cc2C)on1 [Pleconaril, 3-[3,5-dimethyl-4-[5-(3-methy-1,2-oxazolyl)propoxy]phenyl]-5-(trifluonomethyl) -1,2,4-oxadiazole, reference compound] | – | – | – | 17.25 | 0.04 (≈ 0.105 µM)

Now from value to compound, other results behind:

IC50 [1, 3] [mg/L] | SMILES | IC50 (half-inhibitory concentration for viruses) [1, 3] [mg/L] | TC50 (half of the toxic concentration) [2] [mg/L] | TC50 (half of the toxic concentration) ([2]; Vero cells, Cox_B3) [mg/L] | IC50 ([1]; Vero) [mg/L]
0.051 (≈ 0.111 µM) | Cc1nc(-c2ccc(OCCOc3c(C)cc(-c4noc(C(F)(F)F)n4)cc3C)cc2)no1 [Compound 111, 3-[3,5-dimethyl-4-[2-[4-(5-methyl-1,2,4-oxadiazole-3-yl)phenoxyl]ethoxyl]phenyl]-5-(trifluoromethyl)-1,2,4-oxadiazole] | – | – | 38.21 | –
0.036 (≈ 0.078 µM) | Cc1nc(-c2ccc(OCCOc3c(C)cc(-c4noc(C(F)(F)F)n4)cc3C)nc2)no1 [Compound 113, 2-[2-[2,6-dimethyl-4-[5-(trifluoromethyl)-1,2,4-oxadiazole-3-yl]phenoxyl]ethoxyl]-5-(5-methyl-1,2,4-oxadiazole-3-yl)-pyridine] | – | – | 35.22 | –
0.033 (≈ 0.0696 µM) | Cc1nc(-c2ccc(OCCCOc3c(C)cc(-c4noc(C(F)(F)F)n4)cc3C)cc2)no1 [Compound 117, 3-[3,5-dimethyl-4-[3-[4-(5-methyl-1,2,4-oxadiazole-3-yl]phenoxyl]propoxy]phenyl]-5-(trifluoromethyl)-1,2,4-oxadiazole] | – | – | 33.28 | –
0.042 (≈ 0.0883 µM) | Cc1nc(-c2ccc(OCCCOc3c(C)cc(-c4noc(C(F)(F)F)n4)cc3C)nc2)no1 [Compound 119, 2-[3-[2,6-dimethyl-4-[5-(trifluoromethyl)-1,2,4-oxadiazole-3-yl]phenoxyl]propoxy]-5-(5-methyl-1,2,4-oxadiazole-3-yl]-pyridine] | – | – | 36.28 | –
0.039 (≈ 0.079 µM) | Cc1nc(-c2cnc(OCCCOc3c(C)cc(-c4noc(C(F)(F)F)n4)cc3C)c(F)c2)no1 [Compound 121, 2-[3-[2,6-dimethyl-4-[5-(trifluoromethyl)-1,2,4-oxadiazole-3-yl]phenoxyl]propoxy]-3-fluoro-5-(5-methyl-1,2,4-oxadiazole-3-yl)-pyridine] | – | – | 36.17 | –
0.04 (≈ 0.0954 µM) | Cc1cc(-c2noc(C(F)(F)F)n2)cc(C)c1OCCCOc1ncc(C#N)cn1 [Compound 132, 2-[3-[2,6-dimethyl-4-[5-(trifluoromethyl)-1,2,4-oxadiazole-3-yl]phenoxyl]propoxy]-5-cyano-pyrimidine] | – | – | 39.23 | –
0.041 (≈ 0.0978 µM) | Cc1cc(-c2noc(C(F)(F)F)n2)cc(C)c1OCCCOc1ccc(C#N)nn1 [Compound 133, 3-cyano-6-[3-[2,6-dimethyl-4-[5-(trifluoromethyl)-1,2,4-oxadiazole-3-yl]phenoxyl]propoxy]pyridazine] | – | – | 38.78 | –
0.045 (≈ 0.103 µM) | Cc1cc(-c2noc(C(F)(F)F)n2)cc(C)c1OCCCOc1ccc([N+](=O)[O-])cn1 [Compound 134, 2-[3-[2,6-dimethyl-4-[5-(trifluoromethyl)-1,2,4-oxadiazole-3-yl]phenoxyl]propoxy]-5-nitropyridine] | – | – | 40.25 | –
0.038 (≈ 0.0716 µM) | Cc1cc(-c2noc(C(F)(F)F)n2)cc(C)c1OCCCOc1cnc(-c2noc(C(F)(F)F)n2)cn1 [Compound 135, 2-[5-(trifluoromethyl)-1,2,4-oxadiazole-3-yl]-5-[3-[2,6-dimethyl-4-[5-(trifluoromethyl)-1,2,4-oxadiazole-3-yl]phenoxyl]propoxy]pyrazine] | – | – | 42.18 | –
0.04 (≈ 0.0754 µM) | Cc1cc(-c2noc(C(F)(F)F)n2)cc(C)c1OCCCOc1ncc(-c2noc(C(F)(F)F)n2)cn1 [Compound 136, 2-[3-[2,6-dimethyl-4-[5-(trifluoromethyl)-1,2,4-oxadiazole-3-yl]phenoxyl]propoxy]-5-[5-(trifluoromethyl)-1,2,4-oxadiazole-3-yl]-pyrimidine] | – | – | 41.23 | –
